According to ChEMBL document CHEMBL4417627, “Dab2 inhibitors for the prevention and treatment of cystic fibrosis” (2017):

Experiments:
Assay type in all cases: cell-based
[1] = Toxicity in human CFBE cells assessed as reduction in cell viability incubated for 12 hrs by LDH assay
[2] = Toxicity in human CFBE cells assessed as reduction in cell viability incubated for 3 hrs by LDH assay
[3] = Toxicity in human CFBE cells assessed as reduction in cell viability at 5 to 100 uM incubated for 3 hrs by MTT assay
[4] = Toxicity in human CFBE cells assessed as reduction in cell viability at 5 to 100 uM incubated for 12 hrs by MTT assay
[5] = Toxicity in human CFBE cells assessed as reduction in cell viability at 40 uM incubated for 24 hrs by LDH assay relative to control 1% triton
[6] = Toxicity in human CFBE cells assessed as reduction in cell viability at 100 uM incubated for 3 hrs by LDH assay relative to control 1% triton

Row | Compound | Activity [1] | Activity [2] | Activity [3] | Activity [4] | Activity [5] | Activity [6]
1 | CN1CCc2cccc3c2[C@@H]1Cc1ccc(O)c(O)c1-3.Cl | Dose-dependent effect | Dose-dependent effect | Non-Toxic | Non-Toxic | – | –
2 | C[C@]12CC[C@@H]3c4cc(O)c(O)cc4CC[C@H]3[C@@H]1CC[C@@H]2O | Dose-dependent effect | Dose-dependent effect | Non-Toxic | Non-Toxic | 20 to 40% | –
3 | CC1(C)Cc2ccccc2-c2n[nH]c(=S)n21 | Toxic | Non-Toxic | Non-Toxic | Non-Toxic | – | <= 10%
